Here are results for ten compounds from patent publication US10633376B2, “Crystalline forms of JAK1-selective inhibitor, processes for preparation and use thereof” (Crystal Pharmaceutical (Suzhou) Co., Ltd., priority 2016, dated 2020).

Converted amounts (≈) assume the structure as drawn. “Also recorded” adds a separate entry of the source. Read-outs that look alike come from different tables or passages of the source.

A word on the solubility: it is the concentration that dissolves in the medium under given conditions.

For data set [1] the following is noted: clinical trials by Gilead; cited from earlier work.
Data set [2] can be described thus: Stability study of crystalline form on storage, XRPD. It is filed as physicochemical. Particulars: 3 weeks. As for the experimental part: Form CS1 of the present disclosure was stored under 25° C./60% RH and 40° C./75% RH for 3 weeks. Form CS2 of the present disclosure was stored under 25° C./60% RH, 40° C./75% RH and 60° C./75% RH for 3 weeks.
A short description of data set [3]: Solubility comparison study, saturated solutions measured by HPLC. It counts as physicochemical. The settings on record: for Solubility in FaSSIF 1 h: FaSSIF pH=6.5, 1 h; for Solubility in FaSSIF 4 h: FaSSIF pH=6.5, 4 h; for Solubility in FaSSIF 24 h: FaSSIF pH=6.5, 24 h. The method, then:
Saturated solutions of Form CS1, Form CS2 of the present disclosure and Pattern 4 in patent CN105960407A (hereinafter referred to as patent Pattern 4) were prepared in SGF (simulated gastric fluids), FeSSIF (fed state simulated intestinal fluids, pH=5.0), FaSSIF (fasted state simulated intestinal fluids, pH=6.5) and pure water. After equilibrated for 1 h, 4 h and 24 h, concentrations of the saturated solutions were measured by HPLC.

For data set [4] the following is noted: prior art patents; cited from earlier work.
For data set [5] the following is noted: 92.5% humidity for 5 days and 10 days, XRPD; cited from earlier work.
Data set [6] is described as follows: Hygroscopicity by dynamic vapor sorption (DVS). It counts as physicochemical. The method, then: Dynamic Vapor Sorption (DVS) is measured via a SMS (Surface Measurement Systems Ltd.) intrinsic DVS instrument. Its control software is DVS-Intrinsic control software, and its analysis software is DVS-Intrinsic Analsis software. Typical Parameters for DVS test are as follows:
Gas and flow rate: N2, 200 mL/min
RH range: 0% RH to 95% RH
Dynamic vapor sorption (DVS) was applied to test hygroscopicity of Form CS2 and Pattern 4 in patent CN105960407A (hereinafter referred to as patent Pattern 4) on about 10 mg of samples. The weight gains at each relative humidity were recorded in a cycle of 0-95%-0 RH.

Data set [7] is described as follows: Mechanical stability study, XRPD before and after grinding. It is filed as physicochemical. From the text: XRPD was applied to test the crystalline forms of Form CS2, Form CS3 and Pattern 4 in patent CN105960407A before and after grinding. The test results were shown in FIG. 20, FIG. 21 and FIG. 22.

As to `O=C(Nc1nc2cccc(-c3ccc(CN4CCS(=O)(=O)CC4)cc3)n2n1)C1CC1` [Filgotinib, N-[5-[4-[(1,1-dioxo-1-thiomorpholin-4-yl)methyl]phenyl][1,2,4]triazolo [1,5-a]pyridin-2-yl]cyclopropanecarboxamide], the “Anemia and abnormal increase in low density lipoprotein (LDL)” value in data set [1] was “does not cause an anemia and abnormal increase in low density lipoprotein (LDL)”.
As to `O=C(Nc1nc2cccc(-c3ccc(CN4CCS(=O)(=O)CC4)cc3)n2n1)C1CC1` [Form CS1], the Solid form change entry in data set [2] (25° C./60% RH) is reported as “doesn't change; also recorded: No form change of Form CS1”. In addition, the Solid form change entry in data set [2] (40° C./75% RH) is given as “doesn't change; also recorded: No form change of Form CS1”. Also, in data set [3], the “Solubility in FaSSIF 1 h” value amounted to 0.12 mg/mL (≈ 282 µM), the “Solubility in FaSSIF 4 h” value is 0.11 mg/mL (≈ 259 µM) and the “Solubility in FaSSIF 24 h” value came to 0.12 mg/mL (≈ 282 µM). Besides, in data set [3] (SGF (pH=1.8)), the “Solubility in SGF 1 h” value came to 3.23 mg/mL (≈ 7590 µM). The “Solubility in SGF 4 h” value in data set [3] (SGF (pH=1.8), 4 h) worked out at 3.30 mg/mL (≈ 7760 µM). Moreover, the “Solubility in SGF 24 h” value in data set [3] (SGF (pH=1.8), 24 h) was 0.82 mg/mL (≈ 1930 µM). In addition, the solubility at 1 h in data set [3] (fed state simulated intestinal fluid (FeSSIF), pH 5, fessif, thermodynamic from solid, FeSSIF pH=5.0, 1 h) was 200 µg/mL (≈ 470 µM). For the same compound, in data set [3] (fed state simulated intestinal fluid (FeSSIF), pH 5, fessif, thermodynamic from solid, FeSSIF pH=5.0, 4 h, read-out: Solubility in FeSSIF 4 h), the solubility at 4 h was 200 µg/mL (≈ 470 µM). Also, the solubility at 24 h in data set [3] (fed state simulated intestinal fluid (FeSSIF), pH 5, fessif, thermodynamic from solid, FeSSIF pH=5.0, 24 h, read-out: Solubility in FeSSIF 24 h) is 250 µg/mL (≈ 588 µM). Besides, in data set [3] (pure water), the “Solubility in water 1 h” value is recorded as 0.12 mg/mL (≈ 282 µM). In addition, the “Solubility in water 4 h” value in data set [3] (pure water, 4 h) came to 0.09 mg/mL (≈ 212 µM). Moreover, in data set [3] (pure water, 24 h), the “Solubility in water 24 h” value is reported as 0.21 mg/mL (≈ 494 µM).
Consider `O=C(Nc1nc2cccc(-c3ccc(CN4CCS(=O)(=O)CC4)cc3)n2n1)C1CC1` [Form B of free form], for which the Solubility in water entry in data set [4] is given as “The solubility in water is 41.28 μg/mL. The yield is low,”. Further, the Stability entry in data set [5] is reported as “Stability is poor. Sample was tested by XRPD after being”.
For the compound `O=C(Nc1nc2cccc(-c3ccc(CN4CCS(=O)(=O)CC4)cc3)n2n1)C1CC1` [Form CS2], the Hygroscopicity class result in data set [6] (80% RH, Chinese Pharmacopoeia 2015 definition) is given as “almost non-hygroscopic; also recorded: almost no hygroscopic”. Moreover, the “Form change after DVS” value in data set [6] (XRPD before and after DVS cycle 0-95%-0 RH) was “no form change was observed”. The Solid form change entry in data set [2] (25° C./60% RH) is listed as “doesn't change; also recorded: No form change of Form CS2”. For the same compound, the Solid form change result in data set [2] (40° C./75% RH) is “doesn't change; also recorded: No form change of Form CS2”. Also, in data set [2] (60° C./75% RH), the Solid form change result is “doesn't change; also recorded: No form change of Form CS2”. In addition, in data set [3], the “Solubility in FaSSIF 1 h” value is recorded as 0.05 mg/mL (≈ 118 µM), the “Solubility in FaSSIF 4 h” value was determined as 0.05 mg/mL (≈ 118 µM) and the “Solubility in FaSSIF 24 h” value is 0.04 mg/mL (≈ 94 µM). The “Solubility in FeSSIF 1 h” value in data set [3] (FeSSIF pH=5.0, 1 h) came out at 0.09 mg/mL (≈ 212 µM). Also, in data set [3] (FeSSIF pH=5.0, 4 h), the “Solubility in FeSSIF 4 h” value amounted to 0.10 mg/mL (≈ 235 µM). In data set [3] (FeSSIF pH=5.0, 24 h), the “Solubility in FeSSIF 24 h” value was 0.08 mg/mL (≈ 188 µM). In data set [3] (SGF (pH=1.8)), the “Solubility in SGF 1 h” value amounted to 1.31 mg/mL (≈ 3080 µM). Further, the “Solubility in SGF 4 h” value in data set [3] (SGF (pH=1.8), 4 h) came out at 1.32 mg/mL (≈ 3100 µM). The “Solubility in water 1 h” value in data set [3] (pure water) is 0.04 mg/mL (≈ 94 µM). For the same compound, the “Solubility in water 24 h” value in data set [3] (pure water, 24 h) was found to be 0.04 mg/mL (≈ 94 µM). Also, the solubility at 4 h in data set [3] (pure water, water, thermodynamic from solid, pure water, 4 h, read-out: Solubility in water 4 h) was determined as 40 µg/mL (≈ 94 µM). Also, in data set [3] (simulated gastric fluid (SGF), pH 1.8, simulated gastric fluid, thermodynamic from solid, SGF (pH=1.8), 24 h, read-out: Solubility in SGF 24 h), the solubility at 24 h is 560 µg/mL (≈ 1320 µM). Besides, the “Mechanical stability (crystalline form after grinding)” value in data set [7] is “better mechanical stabilities; also recorded: don't change after grinding; also recorded: without crystal transformation observed during grinding”.
With `O=C(Nc1nc2cccc(-c3ccc(CN4CCS(=O)(=O)CC4)cc3)n2n1)C1CC1` [Pattern 4, reference compound], in data set [3] (listed as Patent Pattern 4), the “Solubility in FaSSIF 1 h” value amounted to 0.02 mg/mL (≈ 47 µM), the “Solubility in FaSSIF 4 h” value is 0.02 mg/mL (≈ 47 µM) and the “Solubility in FaSSIF 24 h” value turned out to be 0.02 mg/mL (≈ 47 µM). For the same compound, in data set [3] (FeSSIF pH=5.0, 1 h, listed as Patent Pattern 4), the “Solubility in FeSSIF 1 h” value is reported as 0.03 mg/mL (≈ 70.5 µM). In addition, the “Solubility in FeSSIF 4 h” value in data set [3] (FeSSIF pH=5.0, 4 h, listed as Patent Pattern 4) was 0.03 mg/mL (≈ 70.5 µM). In data set [3] (FeSSIF pH=5.0, 24 h, listed as Patent Pattern 4), the “Solubility in FeSSIF 24 h” value amounted to 0.03 mg/mL (≈ 70.5 µM). Besides, in data set [3] (SGF (pH=1.8), listed as Patent Pattern 4), the “Solubility in SGF 1 h” value is 1.02 mg/mL (≈ 2400 µM). In data set [3] (SGF (pH=1.8), 4 h, listed as Patent Pattern 4), the “Solubility in SGF 4 h” value was 1.07 mg/mL (≈ 2510 µM). For the same compound, the “Solubility in SGF 24 h” value in data set [3] (SGF (pH=1.8), 24 h, listed as Patent Pattern 4) stood at 0.46 mg/mL (≈ 1080 µM). In addition, the “Solubility in water 1 h” value in data set [3] (pure water, listed as Patent Pattern 4) amounted to 0.02 mg/mL (≈ 47 µM). Also, the “Solubility in water 4 h” value in data set [3] (pure water, 4 h, listed as Patent Pattern 4) is 0.01 mg/mL (≈ 23.5 µM). In addition, the “Solubility in water 24 h” value in data set [3] (pure water, 24 h, listed as Patent Pattern 4) is 0.01 mg/mL (≈ 23.5 µM). Moreover, the “Mechanical stability (crystalline form after grinding)” value in data set [7] was “poor mechanical stability”.
Consider `O=C(Nc1nc2cccc(-c3ccc(CN4CCS(=O)(=O)CC4)cc3)n2n1)C1CC1` [Form C of free form], for which, in data set [4], the Solubility in water entry was “The solubility in water is 42.22 μg/mL. The yield is low”. Moreover, the Stability entry in data set [5] is listed as “Stability is poor. Sample was tested by XRPD after being”.
On to `O=C(Nc1nc2cccc(-c3ccc(CN4CCS(=O)(=O)CC4)cc3)n2n1)C1CC1` [Form D of free form], for which, in data set [4], the Solubility in water entry was “solubility in water is 55.26 μg/mL. The yield is low and is”. Moreover, the Stability entry in data set [5] is “Stability is poor. XRPD is tested after being placed at”.
`O=C(Nc1nc2cccc(-c3ccc(CN4CCS(=O)(=O)CC4)cc3)n2n1)C1CC1` [Form H of free form]: in data set [4], the Solubility in water entry was “solubility in water is 12.77 μg/mL”.
For the compound `O=C(Nc1nc2cccc(-c3ccc(CN4CCS(=O)(=O)CC4)cc3)n2n1)C1CC1` [Form F of free form], in data set [4], the Solubility in water entry was “The solubility is low. The solubility in water is 50.98 μg/mL”.
Regarding `O=C(Nc1nc2cccc(-c3ccc(CN4CCS(=O)(=O)CC4)cc3)n2n1)C1CC1` [Form E of free form], the Stability result in data set [5] is recorded as “Stability is poor. XRPD is tested after being placed at”.
